The source of these data is paper PMC11579945, “Identification of Potential Inhibitors of Mycobacterium tuberculosis Amidases: An Integrated In Silico and Experimental Study” (ACS Omega, 2024).

Values joined by “and” are separate entries in the source; they are usually repeats but may differ in a detail not shown here. Identical values can stand only once. A value given as a limit tells only on which side of the number the result lay.

In assay [1] the target is T1, Ami1 (Mycobacterium tuberculosis, UniProt I6Y4D2). Briefly: Differential scanning fluorimetry (DSF, thermal shift) with Ami1. In kind it is binding. The conditions noted are these: for Kd: 10 μM Ami1, fitted with Thermott, triplicate, read-out: dissociation constant (Kd); for increase of the melting temperature (Tm) of the amidase: compared to Tm of the protein in the absence of any compound. On the procedure:
DSF assays were conducted using a QuantStudio3 real-time PCR system from Thermo Fisher Scientific, with a MicroAmp Fast 96-well reaction plate and covered with the MicroAmp Optical Adhesive Film (both from Thermo Fisher Scientific). The final reaction volume in each well was 20 μL, containing 10 μM Ami1 in buffer (20 mM HEPES pH 7.5, 100 mM NaCl, 1% DMSO) and 5× SYPRO Orange, either in the absence or presence of various concentrations of compounds. As a control, identical experiments were performed without protein. The temperature was increased from 25 to 99 °C at a gradual rate of 0.2 °C per 12.5 s. Data analysis and dissociation constants (Kd) were determined using the Thermott web application (https://thermott.com).[37],[38] Melting curves were exported from Thermott and visualized using the GraphPad Prism program. All experiments were performed by triplicate.
(In DSF a fluorescence change marks the thermal transition of the protein.)

The target of assay [2] is T1, Ami1. The conditions noted are these: 10 mM EDTA; cited from earlier work.
The target in assay [3] is T1, Ami1. In kind it is binding. The conditions noted are these: ITC.
The subject of a further assay is Ami1Mab. Further details: method as in PMID 33158165. The note with it: cited from earlier work.

T1 sequence (I6Y4D2 25-241 limits assumed): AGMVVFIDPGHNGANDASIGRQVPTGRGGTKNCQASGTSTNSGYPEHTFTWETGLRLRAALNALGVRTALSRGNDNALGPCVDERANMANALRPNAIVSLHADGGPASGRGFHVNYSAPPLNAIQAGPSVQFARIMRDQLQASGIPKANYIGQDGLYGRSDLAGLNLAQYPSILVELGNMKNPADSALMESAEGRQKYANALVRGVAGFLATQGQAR

As for `O=C(NNc1ccc([N+](=O)[O-])cc1[N+](=O)[O-])c1ccccc1` [1a, N′-(2,4-Dinitrophenyl)benzohydrazide], the Kd (in general, the constant that tells how readily two partners part at equilibrium) on Ami1 [1] (DSF) is 2.71 ± 0.55 µM.

In the case of `COc1ccc(C(=O)NNc2ccc([N+](=O)[O-])cc2[N+](=O)[O-])cc1` [1b, N′-(2,4-Dinitrophenyl)-4-methoxybenzohydrazide], the Kd on Ami1 [1] (DSF) worked out at 4.27 ± 1.13 µM. In the case of `O=C(NNc1ccc([N+](=O)[O-])cc1[N+](=O)[O-])c1ccc(Cl)cc1` [1c, 4-Chloro-N′-(2,4-dinitrophenyl)benzohydrazide], the Kd at Ami1 [1] (DSF) amounted to 9.07 ± 1.88 µM. The same measure, in the same setting: for `O=C(NNc1ccc([N+](=O)[O-])cc1[N+](=O)[O-])c1ccc(F)cc1` [1d, N′-(2,4-Dinitrophenyl)-4-fluorobenzohydrazide] the value was 1.65 ± 0.39 µM. `O=C(C=Cc1ccccc1)NNc1ccc([N+](=O)[O-])cc1[N+](=O)[O-]` [1e, N′-(2,4-Dinitrophenyl)cinnamohydrazide]: at Ami1 [1] (DSF), the “increase in Kd compared with derivates 1a–1d” value is recorded as 10 fold and the Kd turned out to be 36.1 ± 7.1 µM. Consider `O=C(NNc1ccc([N+](=O)[O-])cc1[N+](=O)[O-])C1CC1` [1f, N′-(2,4-Dinitrophenyl)cyclopropanecarbohydrazide], for which the “interaction with Ami1” value at Ami1 [1] (DSF dose-response) is on record as “no interaction”.

Turning to `O=C(O)CN(CCN(CC(=O)O)CC(=O)O)CC(=O)O` [EDTA], the “hydrolytic activity of Ami1 after treatment” value at Ami1 [2] is “abolished”.

On to `O=C(NNc1ccc([N+](=O)[O-])cc1[N+](=O)[O-])C1CC1c1ccccc1` (stereo not shown) [compound 1], for which the Kd at Ami1 [1] (DSF) was 6.69 ± 0.79 µM. In addition, the “increase of the melting temperature (Tm) of the amidase” value on Ami1 [1] was “approximately 2 °C”.

Turning to `Ic1ccccc1-c1nn[nH]n1` [compound 5], the Kd at Ami1 [1] (DSF) was determined as 39 ± 6.1 µM. Besides, the “increase of the melting temperature (Tm) of the amidase” value at Ami1 [1] is “approximately 2 °C”. Also, on Ami1 [3] (25 °C, pH 7.5), the ΔGb result is “–6.02 kcal/mol” and the ΔHb result was “–0.37 ± 0.08 kcal/mol”. The “n (stoichiometry)” value at Ami1 [3] (single binding-site model) was 0.7 and 0.7 ± 0.1. For `Nc1ccccc1-c1nnn[nH]1` [inhibitor II], the “concentration from which inhibition of the hydrolytic activity of Ami1Mab was observed” value in the assay with Ami1Mab is at least 800 µM.
